Test: mn = molality of the nth substance listed, in mol/kg
Conditions: Survismeter

C[C@H](CCC(=O)[O-])[C@H]1CC[C@H]2[C@@H]3[C@H](O)C[C@@H]4C[C@H](O)CC[C@]4(C)[C@H]3C[C@H](O)[C@]12C.[Na+] [sodium cholate] + O
surface tension liquid-gas [mN/m]
Conditions	293.15 K	298.15 K	303.15 K	308.15 K	313.15 K	318.15 K
m1 = 0.001	63.15	62.55	61.55	61.35	60	59.45
m1 = 0.002	61.61	61.03	60.07	59.88	58.96	58.1
m1 = 0.003	60.5	59.94	59.01	58.83	57.95	57.45
m1 = 0.004	59.43	58.89	58.33	57.82	56.98	56.5
m1 = 0.006	57.08	56.89	56.04	55.58	55.14	54.69
m1 = 0.008	55.21	55.03	54.52	54.09	53.41	52.99
m1 = 0.01	54.04	53.57	53.09	52.68	52.05	51.65
m1 = 0.014	51.04	50.87	50.43	50.32	50.26	49.42
m1 = 0.018	50.55	50.64	50.2	49.59	49.07	48.73
m1 = 0.022	50.83	50.4	50.22	49.61	49.09	48.75
m1 = 0.026	50.59	50.17	49.99	49.63	49.11	48.77
m1 = 0.03	50.62	50.2	50.26	49.9	49.37	48.56

C[C@H](CCC(=O)[O-])[C@H]1CC[C@H]2[C@@H]3CC[C@@H]4C[C@H](O)CC[C@]4(C)[C@H]3C[C@H](O)[C@]12C.[Na+] [sodium deoxycholate] + O
surface tension liquid-gas [mN/m]
Conditions	293.15 K	298.15 K	303.15 K	308.15 K	313.15 K	318.15 K
m1 = 0.001	58.04	55.92	54.2	54.06	54.23	54.09
m1 = 0.002	55.17	53.25	51.68	51.56	51.75	51.62
m1 = 0.003	53.42	51.34	49.87	49.77	50.21	50.1
m1 = 0.004	50.47	48.6	47.5	47.19	47.62	48.2
m1 = 0.005	48.29	46.35	46.18	45.89	46.32	46.44
m1 = 0.006	46.29	45.1	45.13	44.86	45.29	45.21
m1 = 0.007	45.25	44.7	44.53	44.27	44.69	44.42
m1 = 0.009	44.86	44.51	44.34	43.89	44.11	44.04
m1 = 0.011	44.66	44.32	44.16	44.09	44.31	44.24
m1 = 0.013	44.87	44.53	44.16	43.9	44.32	44.24
m1 = 0.015	45.08	44.73	44.17	44.1	44.14	44.06
m1 = 0.017	44.89	44.54	44.18	44.3	44.14	44.26

Source: the NIST ThermoML archive (doi:10.1016/j.fluid.2015.03.012)
